Test results: patent US10456407B2, “Combination therapy for treating cancer” (Epizyme, Inc., priority 2015, dated 2019)

Test system: WSU-DLCL2 cells
Experiment: RT2 Glucocorticoid signaling PCR array, WSU-DLCL2 (WSU) cell line (Table 4c)
Type: cell-based

CCN(c1cc(-c2ccc(CN3CCOCC3)cc2)cc(C(=O)NCc2c(C)cc(C)[nH]c2=O)c1C)C1CCOCC1 [Compound 44]
Ct Values, MERTK (gene MERTK): 31.323 | ΔCT (B2M), MERTK (gene MERTK): 11.638 | Ct Values, MT2A (gene MT2A): 23.499 | ΔCT (B2M), MT2A (gene MT2A): 3.814 | ΔΔCT, MT2A (gene MT2A, compared to DMSO): −1.453 | Ct Values, NFKBIA (gene NFKBIA): 23.807 | ΔCT (B2M), NFKBIA (gene NFKBIA): 4.122 | ΔΔCT, NFKBIA (gene NFKBIA, compared to DMSO): 1.201 | Ct Values, NR3C1 (gene NR3C1): 23.121 | ΔCT (B2M), NR3C1 (gene NR3C1): 3.436 | ΔΔCT, NR3C1 (gene NR3C1, compared to DMSO): −0.364 | Ct Values, PDCD7 (gene PDCD7): 24.740 | ΔCT (B2M), PDCD7 (gene PDCD7): 5.055 | ΔΔCT, PDCD7 (gene PDCD7, compared to DMSO): 0.326 | Ct Values, PDP1 (gene PDP1): 25.226 | ΔCT (B2M), PDP1 (gene PDP1): 5.541 | ΔΔCT, PDP1 (gene PDP1, compared to DMSO): −0.380 | Ct Values, PER1 (gene PER1): 25.820 | ΔCT (B2M), PER1 (gene PER1): 6.135 | ΔΔCT, PER1 (gene PER1, compared to DMSO): 0.476 | Ct Values, PER2 (gene PER2): 24.837 | ΔCT (B2M), PER2 (gene PER2): 5.152 | ΔΔCT, PER2 (gene PER2, compared to DMSO): 0.151 | Ct Values, PIK3R1 (gene PIK3R1): 24.332 | ΔCT (B2M), PIK3R1 (gene PIK3R1): 4.647 | ΔΔCT, PIK3R1 (gene PIK3R1, compared to DMSO): 0.363 | Ct Values, PLEKHF1 (gene PLEKHF1): 28.660 | ΔCT (B2M), PLEKHF1 (gene PLEKHF1): 8.975 | ΔΔCT, PLEKHF1 (gene PLEKHF1, compared to DMSO): 1.220 | Ct Values, POU2F1 (gene POU2F1): 24.671 | ΔCT (B2M), POU2F1 (gene POU2F1): 4.986 | ΔΔCT, POU2F1 (gene POU2F1, compared to DMSO): 0.202 | Ct Values, POU2F2 (gene POU2F2): 22.678 | ΔCT (B2M), POU2F2 (gene POU2F2): 2.993 | ΔΔCT, POU2F2 (gene POU2F2, compared to DMSO): −0.680 | Ct Values, RASA3 (gene RASA3): 23.208 | ΔCT (B2M), RASA3 (gene RASA3): 3.523 | ΔΔCT, RASA3 (gene RASA3, compared to DMSO): −0.979 | Ct Values, RGS2 (gene RGS2): 24.869 | ΔCT (B2M), RGS2 (gene RGS2): 5.184 | ΔΔCT, RGS2 (gene RGS2, compared to DMSO): 1.732 | Ct Values, RHO8 (gene RHO8): 27.234 | ΔCT (B2M), RHO8 (gene RHO8): 7.549 | ΔΔCT, RHO8 (gene RHO8, compared to DMSO): −2.725 | Ct Values, RPLP0 (gene RPLP0): 15.651 | ΔCT (B2M), RPLP0 (gene RPLP0): −4.004 | Ct Values, SESN1 (gene SESN1): 25.215 | ΔCT (B2M), SESN1 (gene SESN1): 5.530 | ΔΔCT, SESN1 (gene SESN1, compared to DMSO): −3.709 | Ct Values, SGK1 (gene SGK1): 28.624 | ΔCT (B2M), SGK1 (gene SGK1): 8.939 | ΔΔCT, SGK1 (gene SGK1, compared to DMSO): 2.810 | Ct Values, SLC10A6 (gene SLC10A6): 35.684 | ΔCT (B2M), SLC10A6 (gene SLC10A6): 15.999 | ΔΔCT, SLC10A6 (gene SLC10A6, compared to DMSO): −1.168 | Ct Values, SLC19A2 (gene SLC19A2): 26.125 | ΔCT (B2M), SLC19A2 (gene SLC19A2): 6.440 | ΔΔCT, SLC19A2 (gene SLC19A2, compared to DMSO): −0.748 | Ct Values, SLC22A5 (gene SLC22A5): 26.640 | ΔCT (B2M), SLC22A5 (gene SLC22A5): 6.995 | ΔΔCT, SLC22A5 (gene SLC22A5, compared to DMSO): −2.496 | Ct Values, SNTA1 (gene SNTA1): 24.181 | ΔCT (B2M), SNTA1 (gene SNTA1): 4.496 | ΔΔCT, SNTA1 (gene SNTA1, compared to DMSO): −0.492 | Ct Values, SPHK1 (gene SPHK1): 29.333 | ΔCT (B2M), SPHK1 (gene SPHK1): 9.648 | ΔΔCT, SPHK1 (gene SPHK1, compared to DMSO): −0.545 | Ct Values, SPSB1 (gene SPSB1): 26.952 | ΔCT (B2M), SPSB1 (gene SPSB1): 7.267 | ΔΔCT, SPSB1 (gene SPSB1, compared to DMSO): −2.896 | Ct Values, STAT5A (gene STAT5A): 25.495 | ΔCT (B2M), STAT5A (gene STAT5A): 5.810 | ΔΔCT, STAT5A (gene STAT5A, compared to DMSO): −0.307 | Ct Values, STAT5B (gene STAT5B): 23.453 | ΔCT (B2M), STAT5B (gene STAT5B): 3.768 | ΔΔCT, STAT5B (gene STAT5B, compared to DMSO): −0.196 | Ct Values, TBL1XR1 (gene TBL1XR1): 22.111 | ΔCT (B2M), TBL1XR1 (gene TBL1XR1): 2.426 | ΔΔCT, TBL1XR1 (gene TBL1XR1, compared to DMSO): 0.274 | Ct Values, TNF (gene TNF): 25.079 | ΔCT (B2M), TNF (gene TNF): 5.394 | ΔΔCT, TNF (gene TNF, compared to DMSO): 1.150 | Ct Values, TNFAIP3 (gene TNFAIP3): 26.903 | ΔCT (B2M), TNFAIP3 (gene TNFAIP3): 7.218 | ΔΔCT, TNFAIP3 (gene TNFAIP3, compared to DMSO): 1.722 | Ct Values, TSC22D3 (gene TSC22D3): 25.390 | ΔCT (B2M), TSC22D3 (gene TSC22D3): 5.705 | ΔΔCT, TSC22D3 (gene TSC22D3, compared to DMSO): −0.359 | Ct Values, USP2 (gene USP2): 21.903 | ΔCT (B2M), USP2 (gene USP2): 2.218 | ΔΔCT, USP2 (gene USP2, compared to DMSO): −0.978 | Ct Values, USPS4 (gene USPS4): 26.807 | ΔCT (B2M), USPS4 (gene USPS4): 7.122 | ΔΔCT, USPS4 (gene USPS4, compared to DMSO): 0.023 | Ct Values, VDR (gene VDR): 27.293 | ΔCT (B2M), VDR (gene VDR): 7.608 | ΔΔCT, VDR (gene VDR, compared to DMSO): −3.044 | Ct Values, VLDLR (gene VLDLR): 32.346 | ΔCT (B2M), VLDLR (gene VLDLR): 12.661 | ΔΔCT, VLDLR (gene VLDLR, compared to DMSO): 3.859 | Ct Values, ZFP36 (gene ZFP36): 25.541 | ΔCT (B2M), ZFP36 (gene ZFP36): 5.856 | ΔΔCT, ZFP36 (gene ZFP36, compared to DMSO): 0.939 | Ct Values, ZHX3 (gene ZHX3): 24.831 | ΔCT (B2M), ZHX3 (gene ZHX3): 5.146 | ΔΔCT, ZHX3 (gene ZHX3, compared to DMSO): −1.178 | Ct Values, ZNF281 (gene ZNF281): 23.913 | ΔCT (B2M), ZNF281 (gene ZNF281): 4.228 | ΔΔCT, ZNF281 (gene ZNF281, compared to DMSO): −0.329
